Data reported in US7695931B2, “Carotenoid hydroxylase gene, method for preparing hydroxylated carotenoid, and novel geranylgeranyl pyrophosphate synthase” (Kirin Holdings Kabushiki Kaisha, priority 2003, dated 2010).
Each block holds one compound with its values, some of them ahead of it.

Key:
[1] = test system: lipid peroxidation in rat brain homogenate; test: in vitro anti-peroxidation activity: lipid peroxidation in rat brain homogenate (TBA, A532); type: biochemical; settings: for IC50: concentration halving A532 vs non-addition group, ascorbic acid 100 μM, pH 7.4, 37° C., 1 hr, read-out: IC50 (μM), inhibitory effect on lipid peroxidation in rat brain homogenate; for inhibitory effect on lipid peroxidation (in words): rat brain homogenate, in vitro
Experimental: Although various carotenoids have a wide variety of physiological activities and effects, it is believed that activity to inhibit peroxidation of lipids in the living body caused by oxygen radicals is the basis for all activities/effects. Therefore, in vitro inhibitory effects of the two carotenoids synthesized in Example 14 on lipid peroxidation caused by free radicals were examined using rat brain homogenate. This assay was conducted basically according to the method of Kubo et al. (Kubo, K., Yoshitake, Y., Kumada, K., Shuto K., Nakamizo, N. “Radical scavenging action of flunarizine in rat brain in vitro”. Arch. Int. Pharmacodyn. Ther. 272, 283-295, 1984). Briefly, 0.05 ml of methanol solution of a test sample, 0.1 ml of 1 mM ascorbic acid (final concentration 100 μM) and 0.05 ml of H2O were added to 0.6 ml of 100 mM phosphate buffer (pH 7.4) and pre-incubated at 37° C. for 5 min. Then, 0.2 ml of 2.5% (w/v) rat brain homogenate was added thereto to start reaction, followed by incubation at 37° C. for 1 hr under shaking. One milliliter of a mixed solution containing 20% (w/v) trichloroacetic acid, 0.5% (w/v) 2-thiobarbituric acid and 0.2 N HCl was added to the above reaction solution to terminate the reaction. The resultant solution was boiled at 100 ° C. for 30 min for color development. After cooling, the solution was centrifuged at 3000 rpm for 5 min. Absorbance at 532 nm (A532) of the resultant supernatant was measured. The concentration of test sample which is required to decrease the A532 of test sample addition group to one half of the A532 of test sample non-addition group was calculated as IC50. This value was taken as lipid peroxidation inhibitory effect in rat brain homogenate.

[2] = test system: lung cancer; settings: cited from earlier work; for incidence of lung cancer: carotenoid-administered mice, incidence in control mice without carotenoid administration taken as 100%
[3] = test system: liver cancer; settings: carotenoid-administered mice; incidence in control mice without carotenoid administration taken as 100%; cited from earlier work
[4] = test system: skin cancer; settings: carotenoid-administered mice; incidence in control mice without carotenoid administration taken as 100%; cited from earlier work
[5] = compared with β-carotene; cited from earlier work

IC50 [1]: 50 µM
Compound: CC1=C(/C=C/C(C)=C/C=C/C(C)=C/C=C/C=C(C)/C=C/C=C(C)/C=C/C2=C(C)C(=O)CCC2(C)C)C(C)(C)CCC1=O [Canthaxanthin]

Compound: CC1=C(/C=C/C(C)=C/C=C/C(C)=C/C=C/C=C(C)/C=C/C=C(C)/C=C/C2=C(C)C(=O)[C@@H](O)CC2(C)C)C(C)(C)C[C@H](O)C1=O [astaxanthin]
incidence of lung cancer [2]: 70%
incidence of liver cancer [3]: 30%
incidence of skin cancer [4]: 100%

Compound: CC(C)=CCC/C(C)=C/C=C/C(C)=C/C=C/C(C)=C/C=C/C=C(C)/C=C/C=C(C)/C=C/C=C(\C)CCC=C(C)C [lycopene]
inhibition of lung cancer (in words) ([2]; comparison of the three carcinogenesis models): highly effective in inhibiting lung cancer
incidence of liver cancer [3]: 100%
incidence of skin cancer [4]: 10%

IC50 [1]: 8.1 µM
Compound: CC1=C(/C=C/C(C)=C/C=C/C(C)=C/C=C/C=C(C)/C=C/C=C(C)/C=C/C2=C(C)C(=O)CC(O)C2(C)C)C(C)(C)CCC1=O (single isomer, unassigned) [2-Hydroxycanthaxanthin, 2-hydroxy-β,β-carotene-4,4′-dione]
inhibitory effect on lipid peroxidation (in words) [1]: strong inhibitory effects on lipid peroxidation

Compound: CC1=C[C@H](O)CC(C)(C)[C@H]1/C=C/C(C)=C/C=C/C(C)=C/C=C/C=C(C)/C=C/C=C(C)/C=C/C1=C(C)C[C@@H](O)CC1(C)C [lutein]
incidence of lung cancer [2]: 70%
incidence of liver cancer [3]: 50%

IC50 [1]: 4.8 µM
Compound: CC1=C(/C=C/C(C)=C/C=C/C(C)=C/C=C/C=C(C)/C=C/C=C(C)/C=C/C2=C(C)C(=O)CC(O)C2(C)C)C(C)(C)C(O)CC1=O (single isomer, unassigned) [2,2′-Dihydroxycanthaxanthin, 2,2′-dihydroxy-β,β-carotene-4,4′-dione]
inhibitory effect on lipid peroxidation (in words) [1]: strong inhibitory effects on lipid peroxidation

Compound: CC1=C(/C=C/C(C)=C/C=C/C(C)=C/C=C/C=C(C)/C=C/C=C(C)/C=C/C2=C(C)C[C@@H](O)CC2(C)C)C(C)(C)CCC1 [β-cryptoxanthin]
intake ratio into the living body relative to β-carotene [5]: 10 times

Compound: CC1=CCCC(C)(C)C1/C=C/C(C)=C/C=C/C(C)=C/C=C/C=C(C)/C=C/C=C(C)/C=C/C1=C(C)CCCC1(C)C (stereo not drawn) [α-carotene]
incidence of lung cancer [2]: 40%
incidence of liver cancer [3]: 50%

IC50 [1]: > 100 µM
Compound: CC1=C(/C=C/C(C)=C/C=C/C(C)=C/C=C/C=C(C)/C=C/C=C(C)/C=C/C2=C(C)CCCC2(C)C)C(C)(C)CCC1 [β-Carotene, β-carotene]
incidence of lung cancer [2]: 139%
incidence of liver cancer [3]: 70%

Compound: fucoxanthin
incidence of liver cancer [3]: 30%
incidence of skin cancer [4]: 10%
